Data from patent EP0554004A2, “Cephem compounds and antibacterial agents” (KATAYAMA SEIYAKUSYO CO. Ltd., priority 1992, dated 1993).
In brackets after ≈: the same amount, converted by molar mass.

Columns and labels:
Assay in all cases: MIC against standard strains (Test Example 1)
Type in all cases: cell-based
[1] = test system: Escherichia coli CSH2 (RK1)
Method in brief: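 MIC values are the minimum agent concentrations that prevented bacterial growth on Mueller-Hinton agar after overnight incubation at 37°C. Inocula contained 1 x 10^6 CFU/ml, prepared from overnight Mueller-Hinton broth cultures grown at 37°C.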

[2] = test system: Citrobacter freundii ATCC 8090; settings: ATCC8090, Muller-Hinton agar, 37°C overnight
Method in brief: (§1)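 Read-out is visible growth inhibition on agent-containing Mueller-Hinton agar, overnight at 37°C; the MIC is the lowest inhibitory concentration. Inoculum: 1 x 10^6 CFU/ml.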

[3] = test system: Escherichia coli NIHJ JC-2; settings: NIHJJC2, Muller-Hinton agar, 37°C overnight
Method in brief: as §1

[4] = test system: Staphylococcus aureus 209P JC-1; settings: Muller-Hinton agar, 37°C overnight
Method in brief: as §1

[5] = test system: Micrococcus luteus ATCC 9341; settings: ATCC9341, Muller-Hinton agar, 37°C overnight
Method in brief: as §1

[6] = test system: Staphylococcus aureus 167; settings: Staphylococcus aureus 167 (MRSA); Muller-Hinton agar, 37°C overnight
Method in brief: as §1

[7] = test system: Pseudomonas aeruginosa NCTC 10490; settings: NCTC10490, Muller-Hinton agar, 37°C overnight
Method in brief: as §1

[8] = test system: Proteus mirabilis IFO 3849; settings: IFO3849, Muller-Hinton agar, 37°C overnight
Method in brief: as §1

[9] = test system: Klebsiella pneumoniae No. 42; settings: Muller-Hinton agar, 37°C overnight
Method in brief: as §1

[10] = test system: Staphylococcus epidermidis IAM 1296; settings: IAM1296, Muller-Hinton agar, 37°C overnight
Method in brief: as §1

[11] = test system: Bacillus subtilis ATCC 6633; settings: ATCC6633, Muller-Hinton agar, 37°C overnight
Method in brief: as §1

[12] = test system: Staphylococcus aureus 195; settings: Staphylococcus aureus 195 (MRSA); Muller-Hinton agar, 37°C overnight
Method in brief: as §1

[13] = test system: Staphylococcus aureus Smith; settings: Muller-Hinton agar, 37°C overnight
Method in brief: as §1

[14] = test system: Serratia marcescens IAM 1184; settings: IAM1184, Muller-Hinton agar, 37°C overnight
Method in brief: as §1

CO[C@@]1(NC(=O)CSC(F)F)C(=O)N2C(C(=O)O)=C(CSc3nnnn3CCO)CO[C@@H]21 [FMOX, flomoxef, reference compound]
MIC [1]: 0.05 µg/mL (≈ 0.101 µM)
MIC [2]: 0.39 µg/mL (≈ 0.786 µM)
MIC [3]: 0.05 µg/mL (≈ 0.101 µM)
MIC [4]: 0.39 µg/mL (≈ 0.786 µM)
MIC [5]: 0.2 µg/mL (≈ 0.403 µM)
MIC [6]: 100 µg/mL (≈ 201 µM)
MIC [7]: > 100 µg/mL
MIC [8]: 0.2 µg/mL (≈ 0.403 µM)
MIC [9]: 0.1 µg/mL (≈ 0.201 µM)
MIC [10]: 0.2 µg/mL (≈ 0.403 µM)
MIC [11]: 0.2 µg/mL (≈ 0.403 µM)
MIC [12]: 6.25 µg/mL (≈ 12.6 µM)
MIC [13]: 0.39 µg/mL (≈ 0.786 µM)
MIC [14]: 0.2 µg/mL (≈ 0.403 µM)
